Patent US20030078518A1, “Method of treating the skin of a subject” (priority 2001, published 2003)

Assays:
Assay type in all cases: in vivo, human
IgE = experiment: Study 2: Total IgE ELISA in interstitial fluid, effect of supplementation; settings: for Concentration of IgE (log), MEAN: Supplement Yes
Description: (§1) The laser made four pores at each collection site.
(§2) The other skin analytes were measured in Study 2 using standard ELISA kits: MMP-1 (ELISA Cat # QIA55, Oncogene Research Products, Cambridge Mass.); Total IgE (ELISA Cat # RE59061, IBL, Hamburg, Germany distributed by KMI Diagnostics); Non Extraction IGF-1 (ELISA Cat # DSL-10-2800, Diagnostics Systems Laboratories, Webster Tex.); IL-1 RA (ELISA Cat # DRA00, R&D Systems, Minneapolis, Minn.); IL-1A (ELISA Cat # EH2IL1A, Pierce/Endogen, Rockford, Ill.).

MMP-1 = experiment: Study 2: MMP-1 ELISA in interstitial fluid, effect of supplementation; settings: for Concentration of MMP-1 (log), MEAN: Supplement Yes
Description: as §1, §2

IGF-1 = experiment: Study 2: IGF-1 ELISA in interstitial fluid, effect of supplementation; settings: Supplement Yes
Description: as §1, §2

IL-1 RA = experiment: Study 2: IL-1 RA ELISA in interstitial fluid, effect of supplementation; settings: for Concentration of IL-1 RA (log), MEAN: Supplement Yes
Description: as §1, §2

IL-1A = experiment: Study 2: IL-1A ELISA in interstitial fluid, effect of supplementation; settings: for Concentration of IL-1A (log), MEAN: Supplement Yes
Description: as §1, §2

O=C1O[C@H]([C@@H](O)CO)C(O)=C1O [Vitamin C]
Effect of vitamin C supplement on concentration of IgE in ISF (IgE): significantly increased | Concentration of IgE (log), MEAN (IgE; sun-exposed site ISF): 4.94 | Concentration of IgE (log), MEAN (IgE; sun-protected site ISF): 18.50 | Effect of vitamin C supplement on concentration of MMP-1 in ISF (MMP-1): significantly increased | Concentration of MMP-1 (log), MEAN (MMP-1; sun-exposed site ISF): 0.64 | Concentration of MMP-1 (log), MEAN (MMP-1; sun-protected site ISF): 0.91 | Concentration of IGF-1, MEAN (IGF-1; sun-exposed site ISF): 76.83 | Concentration of IGF-1, MEAN (IGF-1; sun-protected site ISF): 97.78 | Effect of vitamin C supplement on concentration of IL-1 RA in ISF (IL-1 RA): significantly increased | Concentration of IL-1 RA (log), MEAN (IL-1 RA; sun-exposed site ISF): 10140 | Concentration of IL-1 RA (log), MEAN (IL-1 RA; sun-protected site ISF): 9492 | Effect of vitamin C supplement on concentration of IL-1A in ISF (IL-1A): significantly increased | Concentration of IL-1A (log), MEAN (IL-1A; sun-exposed site ISF): 120.24 | Concentration of IL-1A (log), MEAN (IL-1A; sun-protected site ISF): 191.5
